From paper PMC12775124, “CUL4A-DDB1-DCAF10 is an N-recognin for N-terminally acetylated Src kinases” (Nature Communications, 2026) come the findings set out here.

The test system of assay [1] is DCAF10. The experiment in a line: Peptide pull-down with quantitative MS, mouse liver lysate, DCAF10. The class given is binding.
Experimental: Biotinylated 10-mer Nt-peptides (Nt-free, Nt-acetylated, and, where indicated, Nt-myristoylated; sequences in Supplementary Table 1) were synthesized with a C-terminal Lys3 spacer and biotin, immobilized on magnetic streptavidin beads, and incubated with HeLa or mouse liver lysates. After standardized washes, bound proteins were on-bead reduced/alkylated, digested with LysC/trypsin, desalted, and analysed by LC-MS in DIA mode (Orbitrap Exploris 480) as described previously[24]. Variants included endogenous Nt-sequences, swap and mutant (Ala-Ala-Ala or Nt-amino acids) peptides, and pairwise comparisons of conditions of interest.
Briefly, magnetic streptavidin beads (DynabeadsTM
Beads were then washed three times with PBS.
210 washing, 1 mg of HeLa lysates or 2 mg of liver lysates was taken, and lysis buffer (75
Lysates were incubated with streptavidin
HeLa pull-downs were washed twice with lysis buffer and twice
Liver pulldowns were washed twice with cold low salt buffer (50 mM
220 individually ventilated cages under a 12-h light/dark cycle and were provided with sterile
No animal procedures were performed specifically for this
230 of 1:100), and desalted/concentrated on C18 reversed phase stage tips as previously
(§1) 526 Mass spectrometry measurements and raw file processing
527 Samples (peptide pull-downs, IPs and high-pH fractionations) were separated on an […]
The subject of assay [2] is DCAF10. The assay can be described thus: Anti-GFP immunoprecipitation of Lyn-GFP with MS, DCAF10. The class given is binding, human. As to conditions: anti-GFP IP, NMT1/2 siRNA and control.
Experimental: 494 induction using GFP-Trap magnetic agarose beads. Briefly, 10 µL of bead slurry per
495 reaction was equilibrated three times with ice-cold lysis buffer (75 mM HEPES pH 7.5,
497 supplemented with 1mM DTT, PhosSTOP, and Protease Inhibitor Cocktail). Then, 500
498 µL of each lysate sample (control, dox induction, and NMT1/2 knockdown with or
499 without dox induction) containing approximately 300 µg total protein, were added to
500 tubes containing the equilibrated beads. Samples were rotated end-over-end for 1.5–2 h
After incubation, the beads were washed twice with 500 µL of cold lysis buffer
502 and twice with 500 µL of cold lysis buffer lacking NP-40, glycerol, DTT, phosSTOP, and
503 Protease Inhibitor Cocktail. Finally, the immunoprecipitates were resuspended in 50 µL
504 of 8 M urea, incubated at 25°C for 30 min, and stored at -20°C prior to on-bead digestion
Each experimental condition was performed in
as §1
527 Samples (peptide pull-downs, IPs and high-pH fractionations) were separated on an
528 EASY-nLC 1200 HPLC system (Thermo Fisher Scientific, Waltham, MA, USA) using
529 in-house-packed 50-cm reversed-phase columns (75 cm diameter, 1.9 mm C18 ReproSil
530 particles, Dr. Maisch GmbH) (60°C at 300 nL/min flow rate with an 83 min gradient from […]
536 sec cycle time) (data points per peak = 6). Cycle times were calculated based on the […]
Assay [3] relates to pY397 Lyn. The assay can be described thus: Phosphorylation of Lyn-GFP variants at pY397, Western blot (reviewers only). The class given is cell-based, human. As to conditions: preliminary experiment, unstimulated cells, three independent blots. The text has this: distinct in term of phospho-tyrosine activity?
We agree that understanding the functional consequences of N-terminal acetylation versus myristoylation—particularly regarding kinase activity and localization—is among the most relevant questions and a key next step in this project. As an initial indication, we performed a preliminary experiment using full-length Lyn constructs (LynWT-GFP, LynG2A-GFP, and LynG2P-GFP) with or without NMT1/2 RNAi and probed the activating phospho-tyrosine site of Lyn (pY397). We observed marked […]
upon NMT1/2 knockdown specifically at the activating pY397 site, while global pY levels appeared to be largely unchanged in these unstimulated cells, […] (Figure 2 provided to reviewers only). […]
have not included them in the manuscript but provide them for the reviewers’ information only, as we are working on consequences for kinase activity and biological role. We plan to pursue a systematic analysis under stimulated conditions, quantifying pY patterns and localization changes to define how the N-terminal state affects SFK signaling output. […]
Fig. 2 for reviewers only. a) LynWT-GFP, LynG2A-GFP and LynG2P-GFP expressing cells were treated with NMT1/2 RNAi or left untreated and then blotted against anti-pY397 Lyn, pan-anti-pY and controls. b) Quantification of three independent blots. […]
On the technique in general: Immunoblotting shows a protein as a band on a membrane.

Assay [4] relates to CUL4A-DDB1-DCAF10. The assay can be described thus: In vitro ubiquitination of Lyn-GFP variants by CUL4A-DDB1-DCAF10. The class given is biochemical, human. As to conditions: for Increase of in vitro ubiquitination under NMT1/2 siRNA: WT E3 complex, IP from NMT1/2 siRNA vs control DLD-1 cells. The text has this: Lyn^WT-GFP was ubiquitinated by the WT E3 complex in both conditions; however, unlike in vitro ubiquitination with endogenous Lyn (Fig. 5c, d), ubiquitination increased ~6-fold under NMT1/2 siRNA conditions. This is consistent with DCAF10 being limiting and overexpressed Lyn-GFP, accumulating an acetylated fraction available for DCAF10 in vitro. Then, we performed IPs for all Nt variants under NMT1/2 siRNA conditions (Fig. 6d, h–i). […] In vitro ubiquitination assays using untreated cell lysates led to similar results (Supplementary Fig. 7h, i).
Reactions contained E1, UBCH5B (E2), ubiquitin, Mg-ATP in ligation buffer and were incubated with bead-bound substrates, followed by washing and immunoblot detection of ubiquitinated species (anti-ubiquitin), with loading controls (anti-Lyn, -Fyn, -Src or -GFP) (n = 3 independent enzymatic assays). Complete reagent lists, complex preparation, substrate IP conditions, wash buffers, and gel/blot parameters are provided in the Supplementary Methods and Tables.
357 (v/v) glycerol, 2 mM TCEP, supplemented with Protease Inhibitor Cocktail), and lysed
358 by sonication. Lysates were cleared by centrifugation at 28,000 rpm for 45 min at 4 °C
359 using a JA-30.50 rotor (Beckman Coulter, Brea, CA, USA). The cleared and filtered (0.8
360 µm) lysate was applied to 1 mL of Strep-Tactin®XT 4Flow® resin (iba), pre-equilibrated
361 once with wash buffer (100 mM Tris-HCl pH 8.0, 150 mM NaCl, 1 mM EDTA) and lysis
362 buffer. The lysate was incubated on a tube roller for 16 h at 4 °C. After incubation, beads
363 were washed with 50 mL of lysis buffer. Bound proteins were eluted with 10 mL of lysis
364 buffer supplemented with 50 mM biotin, after 15 min incubation on a tube roller at 4 °C.
366 Superdex 200 10/300 or 16/60 SEC column (GE Healthcare, Chicago, IL, USA),
367 preequilibrated in SEC buffer (250 mM Tris pH 7.5, 250 mM NaCl, 10% (v/v) glycerol,
370 Purified proteins were visualized during and after the purification by SDS-gels containing
371 TCE (2,2,2-trichloroethanol)62. The identity of proteins was confirmed by WB and MS.
373 In vitro ubiquitination assays
374 The in vitro ubiquitination assays were performed as previously described8. In brief,
375 E1 (50 nM), UBCH5B (250 nM), ubiquitin (1.5 µg), Mg-ATP (3 mM), ligation buffer,
376 and water were pre-mixed. The premix was divided, and either CUL4A-RBX1-
378 RBX1DDB1 (-DCAF10) (250 nM each) was added. 15 μL of each premix were incubated
379 with substrates (endogenous Lyn or Lyn-GFP constructs) bound to beads for 1 h at 30°C
380 with shaking. Samples were then washed four to five times with a buffer containing 50 […]
382 EDTA, and loaded on a gradient gel (4–15%). Ubiquitination of substrates was assessed
383 by WB using an anti-ubiquitin antibody. Equal substrate loading was evaluated by anti- […]

As to “GCIKSKGKDSKK [Ac-Lyn, Nt-peptide of Lyn (aa 1–10 + KKK-biotin), Nt-acetylated]”, the “DCAF10 binding (in words)” value in assay [1] is listed as “confirmed DCAF10 binding”.
Consider “Lyn^WT-GFP: doxycycline-inducible C-terminally GFP-fused Lyn in DLD-1 Lyn KO cells”, for which the “Interaction with DCAF10 (in words)” value in assay [2] is “significantly interacted with DCAF10 under both NMT1/2 siRNA and control conditions, with significant enrichment upon NMT1/2 KD”. In addition, the “Decrease of pY397 phosphorylation upon NMT1/2 knockdown” value in assay [3] was “approximately 15%”. Besides, the “In vitro ubiquitination (in words)” value in assay [4] (Lyn-GFP variants, NMT1/2 siRNA) is “robustly ubiquitinated by the WT E3 complex”. For the same substance, the figures for the “Increase of in vitro ubiquitination under NMT1/2 siRNA” value in assay [4] and in assay [4] (listed as LynWT–GFP) were ~ 6 fold and > 5 fold, respectively.
